The target of assay [1] is T1, Sentrin-specific protease 6 (Homo sapiens, UniProt Q9GZR1).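 Also: Luminescence-based dose-response confirmatory assay of SENP6 inhibition, following up an ultra-high-throughput screen.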
T1 sequence (Q9GZR1 whole entry): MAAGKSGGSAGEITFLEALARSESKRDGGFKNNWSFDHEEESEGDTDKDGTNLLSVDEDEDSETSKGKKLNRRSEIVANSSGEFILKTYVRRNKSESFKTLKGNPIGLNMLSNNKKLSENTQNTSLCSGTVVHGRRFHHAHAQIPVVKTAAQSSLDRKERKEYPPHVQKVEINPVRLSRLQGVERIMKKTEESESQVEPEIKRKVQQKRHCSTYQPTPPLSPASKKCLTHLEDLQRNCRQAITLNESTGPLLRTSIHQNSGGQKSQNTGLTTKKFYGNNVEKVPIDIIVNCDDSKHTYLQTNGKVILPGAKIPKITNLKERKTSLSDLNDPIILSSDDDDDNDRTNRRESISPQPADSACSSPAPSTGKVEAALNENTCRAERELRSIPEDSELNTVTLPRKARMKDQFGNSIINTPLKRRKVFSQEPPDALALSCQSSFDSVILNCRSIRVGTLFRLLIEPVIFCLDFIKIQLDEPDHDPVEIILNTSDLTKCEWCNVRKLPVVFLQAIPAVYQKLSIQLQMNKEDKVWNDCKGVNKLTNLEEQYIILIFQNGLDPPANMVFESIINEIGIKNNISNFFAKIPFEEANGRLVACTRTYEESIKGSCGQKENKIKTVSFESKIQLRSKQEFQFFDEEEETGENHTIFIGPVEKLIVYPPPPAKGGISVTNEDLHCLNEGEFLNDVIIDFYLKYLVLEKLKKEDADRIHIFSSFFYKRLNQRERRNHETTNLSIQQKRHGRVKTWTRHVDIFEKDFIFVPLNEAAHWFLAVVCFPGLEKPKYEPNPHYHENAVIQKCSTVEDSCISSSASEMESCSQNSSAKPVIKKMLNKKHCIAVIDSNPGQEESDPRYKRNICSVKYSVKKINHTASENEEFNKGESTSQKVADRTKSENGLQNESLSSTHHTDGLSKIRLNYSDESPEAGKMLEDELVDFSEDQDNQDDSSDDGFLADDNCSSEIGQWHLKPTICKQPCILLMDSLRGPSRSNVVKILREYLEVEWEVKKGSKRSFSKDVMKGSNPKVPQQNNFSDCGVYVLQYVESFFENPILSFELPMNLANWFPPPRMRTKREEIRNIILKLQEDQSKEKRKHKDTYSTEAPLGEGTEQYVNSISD
Format: functional.

Assay [2] deals with HEK293. Put plainly: cells. To be noted: Homo sapiens.
The target of assay [3] is T2, Sentrin-specific protease 8 (Homo sapiens, UniProt Q96LD8).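 Also: luminescence read-out of SENP8 inhibition, dose-response confirmation following an ultra-high-throughput screen.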
T2 sequence (Q96LD8 whole entry): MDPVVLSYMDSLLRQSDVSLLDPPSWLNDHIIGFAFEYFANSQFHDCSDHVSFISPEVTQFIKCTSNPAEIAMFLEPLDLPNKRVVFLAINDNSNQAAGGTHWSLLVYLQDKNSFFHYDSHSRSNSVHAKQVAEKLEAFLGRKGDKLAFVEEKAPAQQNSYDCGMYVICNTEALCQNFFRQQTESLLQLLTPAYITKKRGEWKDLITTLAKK
Format: functional.

In assay [4] the target is T3, Sentrin-specific protease 7 (Homo sapiens, UniProt Q9BQF6).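 Also: Luminescence-based dose-response confirmation of ultra-high-throughput screening hits, measuring inhibition of SENP7.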
T3 sequence (Q9BQF6 whole entry): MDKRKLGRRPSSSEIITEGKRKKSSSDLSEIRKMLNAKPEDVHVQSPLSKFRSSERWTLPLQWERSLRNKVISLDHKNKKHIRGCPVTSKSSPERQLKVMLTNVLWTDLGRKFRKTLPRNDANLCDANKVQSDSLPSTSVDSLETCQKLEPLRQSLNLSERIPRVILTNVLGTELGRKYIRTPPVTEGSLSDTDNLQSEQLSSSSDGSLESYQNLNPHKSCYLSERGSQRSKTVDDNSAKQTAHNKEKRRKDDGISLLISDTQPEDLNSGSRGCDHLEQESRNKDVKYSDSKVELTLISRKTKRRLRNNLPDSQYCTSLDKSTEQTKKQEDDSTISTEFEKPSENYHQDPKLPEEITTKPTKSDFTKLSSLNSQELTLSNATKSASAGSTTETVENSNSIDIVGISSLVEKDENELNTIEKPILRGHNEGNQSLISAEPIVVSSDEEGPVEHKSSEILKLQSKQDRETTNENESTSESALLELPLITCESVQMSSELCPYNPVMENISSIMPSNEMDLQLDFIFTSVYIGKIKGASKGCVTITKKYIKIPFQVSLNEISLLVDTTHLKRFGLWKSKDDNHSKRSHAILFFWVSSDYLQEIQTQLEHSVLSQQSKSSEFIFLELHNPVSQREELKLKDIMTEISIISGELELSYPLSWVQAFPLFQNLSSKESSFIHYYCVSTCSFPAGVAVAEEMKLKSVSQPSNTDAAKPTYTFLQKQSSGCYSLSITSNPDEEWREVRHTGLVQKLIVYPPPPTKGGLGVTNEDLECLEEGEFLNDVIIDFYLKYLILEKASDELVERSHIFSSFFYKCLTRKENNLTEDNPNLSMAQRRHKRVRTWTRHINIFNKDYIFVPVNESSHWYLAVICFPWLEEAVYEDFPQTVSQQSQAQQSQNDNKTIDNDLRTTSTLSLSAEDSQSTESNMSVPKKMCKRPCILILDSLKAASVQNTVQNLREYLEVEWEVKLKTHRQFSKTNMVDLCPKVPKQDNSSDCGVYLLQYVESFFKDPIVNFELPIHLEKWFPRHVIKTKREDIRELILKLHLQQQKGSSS
Format: functional.

For assay [5], the target named is T4, Caspase-3 (Homo sapiens, UniProt P42574).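 Also: Dose-response selectivity test against caspase-3 for candidate inhibitors of sentrin-specific proteases (SENPs).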
T4 sequence (P42574 whole entry): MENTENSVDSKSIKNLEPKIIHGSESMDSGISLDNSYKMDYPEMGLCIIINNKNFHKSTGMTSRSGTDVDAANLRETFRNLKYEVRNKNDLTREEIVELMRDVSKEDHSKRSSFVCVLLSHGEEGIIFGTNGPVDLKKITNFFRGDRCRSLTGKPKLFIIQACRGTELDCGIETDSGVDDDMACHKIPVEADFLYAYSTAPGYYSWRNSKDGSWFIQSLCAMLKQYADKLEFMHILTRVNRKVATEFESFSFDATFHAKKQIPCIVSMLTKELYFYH
Type of assay: functional.

In assay [6] the test system is HEK293. Put plainly: cells. To be noted: Homo sapiens. This is another data set of the same source.
Assay [7] deals with T5, Hexokinase HKDC1 (Homo sapiens, UniProt Q2TB90).
T5 sequence (Q2TB90 whole entry): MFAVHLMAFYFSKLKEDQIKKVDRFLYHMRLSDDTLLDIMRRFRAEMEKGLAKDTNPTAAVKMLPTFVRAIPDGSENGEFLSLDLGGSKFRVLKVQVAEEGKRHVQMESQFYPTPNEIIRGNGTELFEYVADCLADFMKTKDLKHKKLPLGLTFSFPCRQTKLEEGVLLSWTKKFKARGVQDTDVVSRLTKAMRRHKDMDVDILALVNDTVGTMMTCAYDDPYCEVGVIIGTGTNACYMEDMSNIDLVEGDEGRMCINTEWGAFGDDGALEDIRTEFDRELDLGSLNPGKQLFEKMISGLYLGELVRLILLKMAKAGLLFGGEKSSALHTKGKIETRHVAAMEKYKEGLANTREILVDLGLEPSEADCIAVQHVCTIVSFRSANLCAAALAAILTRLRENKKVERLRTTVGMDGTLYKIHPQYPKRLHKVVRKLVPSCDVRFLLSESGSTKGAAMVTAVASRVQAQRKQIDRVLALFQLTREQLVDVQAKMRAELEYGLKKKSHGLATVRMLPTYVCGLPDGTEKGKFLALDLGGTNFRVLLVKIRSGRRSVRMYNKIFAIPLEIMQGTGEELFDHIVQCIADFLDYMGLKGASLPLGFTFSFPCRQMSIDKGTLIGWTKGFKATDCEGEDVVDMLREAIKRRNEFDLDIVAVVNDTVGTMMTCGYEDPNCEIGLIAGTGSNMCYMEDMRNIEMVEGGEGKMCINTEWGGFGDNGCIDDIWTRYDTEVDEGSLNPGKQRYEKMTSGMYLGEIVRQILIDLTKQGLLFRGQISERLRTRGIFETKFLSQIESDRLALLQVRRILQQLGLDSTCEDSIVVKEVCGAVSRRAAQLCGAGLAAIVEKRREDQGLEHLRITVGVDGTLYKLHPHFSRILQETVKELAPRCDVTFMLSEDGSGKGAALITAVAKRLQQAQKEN
Description: SAR analysis of small molecule inhibitors of hexokinase domain containing I (HKDC1). [Related pubchem assays (depositor defined):AID493160, AID493190]. Format: functional.

Assay [8] has as its target Hexokinase-1 (Homo sapiens, UniProt P19367). Put plainly: SAR analysis of small molecule inhibitors of hexokinase domain containing I (HKDC1) in the hexokinase 1 selectivity assay. [Related pubchem assays (depositor defined):AID493160, AID493190]. Type of assay: functional.
The target of assay [9] is Phospholipase D2 (Homo sapiens, UniProt O14939). Description: cellular phospholipase D2 inhibition IC50 – cell-based, dose response (AID 602147).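 Also: cellular assay in HEK293 cells overexpressing GFP-tagged PLD2.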 Format: functional.
Phospholipase D2, sequence (O14939 whole entry): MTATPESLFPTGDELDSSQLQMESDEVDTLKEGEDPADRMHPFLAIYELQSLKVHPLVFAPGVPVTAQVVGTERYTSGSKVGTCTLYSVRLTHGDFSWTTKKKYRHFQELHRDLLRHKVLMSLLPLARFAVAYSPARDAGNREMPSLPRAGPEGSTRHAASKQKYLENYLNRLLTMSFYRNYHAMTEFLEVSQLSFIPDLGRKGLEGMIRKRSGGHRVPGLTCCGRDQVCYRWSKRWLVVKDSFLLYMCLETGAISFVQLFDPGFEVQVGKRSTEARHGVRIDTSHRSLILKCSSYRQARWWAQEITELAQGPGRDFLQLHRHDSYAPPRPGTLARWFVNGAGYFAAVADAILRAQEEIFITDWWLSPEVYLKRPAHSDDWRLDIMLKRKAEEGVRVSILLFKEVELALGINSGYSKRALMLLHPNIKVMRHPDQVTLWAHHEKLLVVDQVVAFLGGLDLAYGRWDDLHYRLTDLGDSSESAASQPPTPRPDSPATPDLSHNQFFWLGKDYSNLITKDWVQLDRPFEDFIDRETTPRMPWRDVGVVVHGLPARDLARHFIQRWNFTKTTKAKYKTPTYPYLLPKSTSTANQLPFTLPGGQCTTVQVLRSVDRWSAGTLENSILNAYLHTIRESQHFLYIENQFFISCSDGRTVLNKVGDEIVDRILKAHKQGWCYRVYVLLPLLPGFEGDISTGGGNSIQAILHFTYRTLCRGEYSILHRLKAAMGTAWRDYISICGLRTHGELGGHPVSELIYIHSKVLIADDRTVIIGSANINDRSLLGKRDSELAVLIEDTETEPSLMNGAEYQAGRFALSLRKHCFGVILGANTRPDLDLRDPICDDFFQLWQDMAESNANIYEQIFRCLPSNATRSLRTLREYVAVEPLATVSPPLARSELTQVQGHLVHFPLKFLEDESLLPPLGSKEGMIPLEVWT
Assay [10] deals with Phospholipase D1 (Homo sapiens, UniProt Q13393). Put plainly: cellular phospholipase D1 inhibition IC50 – cell-based, dose response (AID 602151).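 Also: cellular PLD1 assay in Calu-1 cells stimulated with PMA.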 Format: functional.
Phospholipase D1, sequence (Q13393 whole entry): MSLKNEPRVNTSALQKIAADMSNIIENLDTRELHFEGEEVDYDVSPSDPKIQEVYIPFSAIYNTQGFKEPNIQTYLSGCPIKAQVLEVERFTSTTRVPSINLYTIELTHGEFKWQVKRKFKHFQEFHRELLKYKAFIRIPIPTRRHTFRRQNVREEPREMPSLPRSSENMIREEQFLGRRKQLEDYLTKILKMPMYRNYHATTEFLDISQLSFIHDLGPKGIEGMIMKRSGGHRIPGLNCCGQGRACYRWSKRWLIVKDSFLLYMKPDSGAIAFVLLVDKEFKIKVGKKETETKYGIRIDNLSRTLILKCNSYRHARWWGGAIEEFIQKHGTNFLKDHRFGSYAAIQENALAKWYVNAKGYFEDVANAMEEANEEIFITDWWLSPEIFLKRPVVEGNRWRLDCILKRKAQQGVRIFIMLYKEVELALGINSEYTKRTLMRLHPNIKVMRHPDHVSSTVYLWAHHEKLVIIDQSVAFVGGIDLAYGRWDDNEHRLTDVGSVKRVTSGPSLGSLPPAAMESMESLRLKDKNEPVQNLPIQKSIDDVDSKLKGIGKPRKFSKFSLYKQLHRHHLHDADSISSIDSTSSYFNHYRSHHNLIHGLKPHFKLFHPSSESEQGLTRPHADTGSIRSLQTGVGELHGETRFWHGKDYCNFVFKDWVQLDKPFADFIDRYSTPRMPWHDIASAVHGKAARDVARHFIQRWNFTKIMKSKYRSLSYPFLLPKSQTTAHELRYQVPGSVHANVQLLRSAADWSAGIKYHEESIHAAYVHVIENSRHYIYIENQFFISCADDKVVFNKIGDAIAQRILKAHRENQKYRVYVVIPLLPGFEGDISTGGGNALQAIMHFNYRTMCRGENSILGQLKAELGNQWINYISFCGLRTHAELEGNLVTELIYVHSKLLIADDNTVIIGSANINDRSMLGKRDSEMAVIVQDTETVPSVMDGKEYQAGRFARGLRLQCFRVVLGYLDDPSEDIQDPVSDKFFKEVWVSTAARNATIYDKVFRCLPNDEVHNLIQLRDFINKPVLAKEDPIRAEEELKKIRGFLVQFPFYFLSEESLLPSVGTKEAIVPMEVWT
Assay [11] has as its system Escherichia coli. Description: microbe, parasite or virus in culture.
Assay [12] concerns the target T6, G-protein coupled receptor 35 (Homo sapiens, UniProt Q9HC97). Put plainly: inhibition of zaprinast-stimulated GPR35 beta-arrestin translocation – imaging, U2OS, beta-arrestin-GFP, zaprinast agonist, primary screen (AID 2058).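 Also: antagonist potency meaning inhibition of agonist-induced arrestin redistribution.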 Type of assay: functional.
In assay [13] the target is T6, G-protein coupled receptor 35. Description: SAR Analysis for the identification of Selective Antagonists of ERK1/2 Activity in GPR35-Overexpressing U2OS Cells. [Related pubchem assays: 2079, 2058 ]. Type of assay: functional, cell-based.
Assay [14] addresses G-protein coupled receptor 55 (Homo sapiens, UniProt Q9Y2T6). Put plainly: blockers of GPR55 signalling, imaged – imaging, image-based, counter-screen for GPR35 antagonist project, SAR follow-up (AID 2397). Format: functional. (Counterscreens check selectivity or assay interference.)
In assay [15] the target is Beta-2 adrenergic receptor (Homo sapiens, UniProt P07550). Description: ADRB2 activation measured by internalization – cell-based, FAP fluorogen, flow cytometry, cherry pick 1, dose response (AID 588763). Format: functional. In general terms: In flow cytometry, cells or beads pass a laser one at a time.
Beta-2 adrenergic receptor, sequence (P07550 whole entry): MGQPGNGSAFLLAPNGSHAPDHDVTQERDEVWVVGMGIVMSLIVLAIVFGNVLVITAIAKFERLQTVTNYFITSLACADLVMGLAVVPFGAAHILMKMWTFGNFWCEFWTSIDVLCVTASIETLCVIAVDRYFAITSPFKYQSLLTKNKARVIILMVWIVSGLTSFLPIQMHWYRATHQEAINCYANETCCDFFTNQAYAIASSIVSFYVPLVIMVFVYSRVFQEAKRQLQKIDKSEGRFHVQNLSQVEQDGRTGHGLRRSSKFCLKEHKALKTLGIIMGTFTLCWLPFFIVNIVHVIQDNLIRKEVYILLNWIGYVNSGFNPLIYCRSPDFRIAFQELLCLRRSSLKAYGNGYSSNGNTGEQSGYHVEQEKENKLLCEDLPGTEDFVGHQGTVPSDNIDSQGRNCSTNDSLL
The target in assay [16] is Short transient receptor potential channel 6 (Mus musculus, UniProt Q61143). Put plainly: mouse TRPC6 channel blockers, concentration series – HEK293 cells, membrane potential dye, IC50, selectivity assay for selective TRPC4 inhibitor project, dose response (AID 492987). Type of assay: functional, cell-based.
Short transient receptor potential channel 6, sequence (Q61143 whole entry): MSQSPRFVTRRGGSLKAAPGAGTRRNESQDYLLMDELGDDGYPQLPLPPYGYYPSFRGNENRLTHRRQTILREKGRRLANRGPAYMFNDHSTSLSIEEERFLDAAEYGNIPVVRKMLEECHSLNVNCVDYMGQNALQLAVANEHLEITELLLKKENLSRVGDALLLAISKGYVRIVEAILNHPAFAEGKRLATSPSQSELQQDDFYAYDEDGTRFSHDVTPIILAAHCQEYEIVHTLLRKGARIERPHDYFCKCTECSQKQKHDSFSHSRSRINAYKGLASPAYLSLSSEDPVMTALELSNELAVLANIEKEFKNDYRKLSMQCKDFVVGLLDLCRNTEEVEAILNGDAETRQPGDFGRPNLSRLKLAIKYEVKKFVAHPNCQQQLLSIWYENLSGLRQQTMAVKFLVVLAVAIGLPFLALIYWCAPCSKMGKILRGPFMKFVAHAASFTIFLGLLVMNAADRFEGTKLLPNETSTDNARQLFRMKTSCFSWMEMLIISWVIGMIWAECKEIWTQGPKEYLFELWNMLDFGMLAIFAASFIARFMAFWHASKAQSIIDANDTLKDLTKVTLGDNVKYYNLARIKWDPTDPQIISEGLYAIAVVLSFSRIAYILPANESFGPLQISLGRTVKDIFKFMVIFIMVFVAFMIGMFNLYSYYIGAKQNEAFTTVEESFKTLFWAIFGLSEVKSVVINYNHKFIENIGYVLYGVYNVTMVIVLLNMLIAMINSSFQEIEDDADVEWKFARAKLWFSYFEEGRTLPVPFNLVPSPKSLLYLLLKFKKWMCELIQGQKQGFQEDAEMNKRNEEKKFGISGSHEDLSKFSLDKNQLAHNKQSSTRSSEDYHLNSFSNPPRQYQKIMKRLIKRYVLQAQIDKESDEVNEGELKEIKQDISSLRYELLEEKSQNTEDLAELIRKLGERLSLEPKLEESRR
Assay [17] concerns the target T7, Short transient receptor potential channel 4 (Mus musculus, UniProt Q9QUQ5).
T7 sequence (Q9QUQ5 whole entry): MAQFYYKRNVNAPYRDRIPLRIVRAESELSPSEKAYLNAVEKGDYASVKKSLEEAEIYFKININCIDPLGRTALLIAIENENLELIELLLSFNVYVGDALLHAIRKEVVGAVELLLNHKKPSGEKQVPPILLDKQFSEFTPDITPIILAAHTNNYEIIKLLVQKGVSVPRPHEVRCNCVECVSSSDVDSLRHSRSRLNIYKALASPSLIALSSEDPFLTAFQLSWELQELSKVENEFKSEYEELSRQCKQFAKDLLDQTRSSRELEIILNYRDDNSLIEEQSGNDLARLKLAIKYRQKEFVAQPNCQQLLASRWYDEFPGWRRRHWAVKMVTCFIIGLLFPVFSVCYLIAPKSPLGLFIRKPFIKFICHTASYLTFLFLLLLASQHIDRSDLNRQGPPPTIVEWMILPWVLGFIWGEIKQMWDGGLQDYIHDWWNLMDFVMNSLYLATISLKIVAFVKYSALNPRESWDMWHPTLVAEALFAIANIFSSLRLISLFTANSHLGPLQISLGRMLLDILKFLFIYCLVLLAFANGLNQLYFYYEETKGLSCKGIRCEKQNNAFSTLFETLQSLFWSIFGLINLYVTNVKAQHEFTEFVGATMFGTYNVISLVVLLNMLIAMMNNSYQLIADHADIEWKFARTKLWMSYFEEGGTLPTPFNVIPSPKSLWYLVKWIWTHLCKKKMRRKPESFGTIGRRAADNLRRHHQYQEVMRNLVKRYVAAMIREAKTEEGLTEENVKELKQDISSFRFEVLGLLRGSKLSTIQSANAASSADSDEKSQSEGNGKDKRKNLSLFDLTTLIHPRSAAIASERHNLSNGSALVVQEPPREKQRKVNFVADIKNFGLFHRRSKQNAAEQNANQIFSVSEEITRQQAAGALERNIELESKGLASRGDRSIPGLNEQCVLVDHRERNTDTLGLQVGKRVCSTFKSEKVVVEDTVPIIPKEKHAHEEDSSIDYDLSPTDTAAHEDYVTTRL
Description: potency of mouse TRPC4 calcium flux blockers – cell-based, HEK293 TRPC4/mu-opioid, DAMGO stimulus, Fluo-4, dose response (AID 492994). Type of assay: functional. On the technique in general: Calcium flux is commonly read through the fluorescence of an indicator in the cells.

Active and inactive are the calls of the source.

T6 sequence (Q9HC97 whole entry): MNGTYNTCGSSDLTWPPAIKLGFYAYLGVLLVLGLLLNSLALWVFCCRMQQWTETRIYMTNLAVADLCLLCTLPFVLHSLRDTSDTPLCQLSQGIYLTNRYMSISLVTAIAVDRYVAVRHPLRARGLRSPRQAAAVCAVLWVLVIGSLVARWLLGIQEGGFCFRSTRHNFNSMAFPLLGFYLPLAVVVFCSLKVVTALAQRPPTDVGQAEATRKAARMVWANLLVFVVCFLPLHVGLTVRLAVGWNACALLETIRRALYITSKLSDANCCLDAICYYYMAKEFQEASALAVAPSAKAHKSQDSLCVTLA
G-protein coupled receptor 55, sequence (Q9Y2T6 whole entry): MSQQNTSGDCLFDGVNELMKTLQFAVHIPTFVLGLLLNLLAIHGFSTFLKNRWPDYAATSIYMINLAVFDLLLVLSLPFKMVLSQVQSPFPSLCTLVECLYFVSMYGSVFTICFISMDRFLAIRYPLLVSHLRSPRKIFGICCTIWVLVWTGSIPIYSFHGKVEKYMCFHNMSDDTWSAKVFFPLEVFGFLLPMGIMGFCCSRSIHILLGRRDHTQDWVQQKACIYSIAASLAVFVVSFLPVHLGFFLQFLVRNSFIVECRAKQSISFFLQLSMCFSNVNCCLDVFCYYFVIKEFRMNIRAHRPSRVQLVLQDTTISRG
Hexokinase-1, sequence (P19367 whole entry, the tested form may be a part): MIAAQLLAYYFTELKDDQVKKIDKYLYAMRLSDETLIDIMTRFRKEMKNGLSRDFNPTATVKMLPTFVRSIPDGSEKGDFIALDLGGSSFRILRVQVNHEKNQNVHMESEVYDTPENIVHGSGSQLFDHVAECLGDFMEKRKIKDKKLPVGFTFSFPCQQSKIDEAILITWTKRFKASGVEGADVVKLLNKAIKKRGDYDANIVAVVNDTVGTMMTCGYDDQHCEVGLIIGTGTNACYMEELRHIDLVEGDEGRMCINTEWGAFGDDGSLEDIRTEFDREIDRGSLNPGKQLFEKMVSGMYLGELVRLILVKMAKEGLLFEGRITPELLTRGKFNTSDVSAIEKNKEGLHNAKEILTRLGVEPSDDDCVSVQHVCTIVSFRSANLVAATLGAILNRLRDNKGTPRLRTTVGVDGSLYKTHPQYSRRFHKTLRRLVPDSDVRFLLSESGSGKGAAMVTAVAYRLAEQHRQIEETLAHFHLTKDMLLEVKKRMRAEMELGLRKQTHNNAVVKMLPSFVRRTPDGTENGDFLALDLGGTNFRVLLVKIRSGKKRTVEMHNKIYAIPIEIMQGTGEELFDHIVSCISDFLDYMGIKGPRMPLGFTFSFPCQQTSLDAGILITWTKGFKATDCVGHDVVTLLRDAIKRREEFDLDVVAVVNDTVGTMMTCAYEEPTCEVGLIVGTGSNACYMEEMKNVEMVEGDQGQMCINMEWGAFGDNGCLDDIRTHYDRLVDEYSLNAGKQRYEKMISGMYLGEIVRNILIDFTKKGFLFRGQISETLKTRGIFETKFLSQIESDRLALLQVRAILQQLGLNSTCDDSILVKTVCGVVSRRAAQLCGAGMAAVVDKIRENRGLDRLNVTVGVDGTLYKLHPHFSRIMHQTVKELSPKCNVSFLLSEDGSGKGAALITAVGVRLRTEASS

Consider `COc1cc(C#Cc2ccc3cc(CCCO)oc(=O)c3c2)cc(OC)c1`, for which the half-maximal inhibitory concentration (IC50) in [1] was 7.16 µM (active); in assay [3], 10.6 µM (active); in [4] it was 2.81 µM (active); in assay [5], 21 µM (active). Also, the EC50 in assay [2] and in assay [6] was > 59.6 µM (inactive) each time.
As to `O=c1c2ccccc2nc(/C=C/c2cccc(Br)c2)n1Cc1ccccc1`, the IC50 in assay [7] and in assay [8] was > 80 µM (inactive) throughout.
Turning to `O=C(NCCN1CCC2(CC1)C(=O)NCN2c1cccc(F)c1)c1ccc(F)nc1`, the IC50 in [9] is 0.385 µM (active); in assay [10] it was 17 µM (active).
Regarding `CCOC(=O)c1cc(C)sc1NC(=O)C(c1ccccc1)c1ccccc1`, the AC50 in [11] is 123 µM (active).
Regarding `O=C(Nc1ccc2nc(SCc3ccc(Cl)cc3)sc2c1)c1ccccc1C(=O)N1CCOCC1`, the IC50 in [12] is 0.768 µM (active); in [13] it was 16.5 µM (not active); in [14] it was > 32 µM (inactive). In addition, the EC50 in assay [15] was 1.74 µM (active).
As for `Cc1cc(N2CCC(N3CCOCC3)CC2)nc2ccccc12`, the IC50 in assay [16] was 16.9 µM (active); in assay [17], 31.9 µM (active).

What is called IC50 is the concentration that inhibits the measured activity by half. The term EC50 denotes the midpoint of the concentration-response curve. As usually defined, the AC50 is the concentration at which the activity in the assay is half-maximal.

The values are drawn from ChEMBL document CHEMBL1201862, “PubChem BioAssay data set” (2004).
